Data from patent publication US5643604A, “Parenteral dosage form” (Aplicaciones Farmaceuticas S.A. De C.V., priority 1990, dated 1997).

Experiments:
[1] = Differential thermal analysis (DSC); conditions: Shimadzu DSC 50 calorimeter
Description: (§1) It is necessary to check that no chemical damage of the substances occurs during the spray-freezing process, which could modify their therapeutic properties. The starting materials (crystals) and the microspheres obtained by spray-freezing are compared by UV and IR spectrophotometry. UV spectras shall always be superimposable and IR spectras shall correspond. If differences in infrared spectras appear, it shall be checked if they are due to a polymorphism phenomenon, by means of an HPLC setup with diode-array detection. Differential thermal analysis is also used, not only to check the melting points, but also to determine if endothermic or exothermic transitions occur, due either to structure modifications or to a polymorphism, which may influence the microsphere information process, or due to heat-induced chemical reactions.
Thermal analysis: Shimadzu DSC 50 calorimeter and CR4A workstation.

[2] = Comparative infrared spectrophotometry (FT-IR, with HPLC diode-array) before and after formation of microspheres; format: physicochemical; conditions: after the formation of microspheres; potassium bromide dispersion
Description: as §1
Equipment used in infrared spectrophotometry: Nicolet 205 FT-IR. Dispersion medium: potassium bromide. Chromatography: HPLC device with photo diode-array detector, model Waters 990 and Nec powermate 2 workstation.

[3] = Comparative UV spectrophotometric analysis before and after formation of microspheres; format: physicochemical; conditions: starting materials (crystals) vs microspheres obtained by spray-freezing; ethanol for 17-beta-estradiol and cholesterol, 0.1N HCl for the others
Description: as §1
Equipment used in ultraviolet spectrography: Hewlett Packard model 8452A with photodiode arrangement and quartz cell with a beam of 0.1 cm.

[4] = general statement, no test described; cited from earlier work

Compound	degradation on differential thermograms [1]	chemical modification by infrared spectrophotometry [2]	chemical modification by UV spectrophotometry [3]	solubility in water [4]
C[C@]12CC[C@@H]3c4ccc(O)cc4CC[C@H]3[C@@H]1CC[C@@H]2O [17-beta-estradiol]	no degradation	no modification	no trace of modification	–
CCCC[N+]1(C)C2CC(OC(=O)C(CO)c3ccccc3)CC1C1OC12 (centres unmarked) [butylhioscine bromide]	–	produces chemical modifications	no trace of modification	–
Cn1c(=O)c2c(ncn2C)n(C)c1=O [caffeine]	no degradation	–	no trace of modification	–
CC(C)CCC[C@@H](C)[C@H]1CC[C@H]2[C@@H]3CC=C4C[C@@H](O)CC[C@]4(C)[C@H]3CC[C@]12C [cholesterol]	–	no modification	no trace of modification	–
CN1C(=O)CN=C(c2ccccc2)c2cc(Cl)ccc21 [diazepam]	no degradation	–	–	–
CCN(CC)CCNC(=O)c1cc(Cl)c(N)cc1OC [methoclopramide]	–	–	–	freely soluble in water
